Data as given in US5994323A (priority 1997, dated 1999).

Key:
[1] = test system: zinc precipitated Aβ; assay: Chelating ability: washing of zinc-aggregated synthetic Aβ on nylon membrane, anti-Aβ 6E10 / ECL; format: biochemical; conditions: 10 ng synthetic Aβ aggregated with 25 μM ZnCl; wash with TBS containing 2 μM chelator; 100% for TBS alone
Procedure: Samples of 10 ng synthetic Aβ were placed in microtitre wells and caused to aggregate by the addition of 25 μM ZnCl. The aggregates were then transferred to a 0.2 μm nylon membrane by filtration. […] The membrane was fixed, probed with the anti Aβ monoclonal antibody 6E10 and developed for exposure to ECL-film. The transmittance of the ECL-film was measured and the relative signal strength calculated based on 100% for TBS alone.

[2] = test system: vitamin B12 ([57Co]-cyanocobalamine); assay: Influence of clioquinol on vitamin B12 in vivo: tissue radioactivity after [57Co]-cyanocobalamine injection; conditions: mice, clioquinol 50 mg/kg/day injected for three days, then [57Co]-cyanocobalamine, sacrificed after two days, ±SEM
Procedure: After three days, all of the mice were injected with [^57 Co]-cyanocobalamine. After two days, the animals were sacrificed, and the brain, liver and kidney were dissected and counted in a gamma-counter as thousand cpm/g tissue (wet weight)±SEM. The radioactivities in each of the groups are stated in Table 1 below: […]

[3] = Solubility in water / aqueous solutions; format: physicochemical
[4] = Dissolution of clioquinol in n-decane and partition into PBS pH 7.4; format: physicochemical
Procedure: The resolubilization of amyloid aggregates by clioquinol was studied. […] The undissolved material was allowed to settle. […] 100 ml of the (light yellow) supernatant was agitated together with 100 ml of PBS pH 7.4 and the phases allowed to separate. The PBS (lower phase) was collected and filtered to remove the residue which formed at the phase interface upon extraction with the organic solvent.

[5] = test system: Aβ; assay: Resolubilization of amyloid aggregates in Alzheimer's disease brain homogenates (Western blot of supernatants); format: biochemical, human; conditions: frontal lobe neocortex, clioquinol/PBS at 100%, 10% and 1% (100%=800 nM)
Procedure: Brain specimens were obtained for which a histopathological diagnosis of Alzheimer's disease was confirmed.
The homogenates were centrifuged at 150,000 xg for thirty minutes and the supernatants collected and held on ice (fraction "S"). The pellets were subjected to an identical homogenization and centrifugation regime and the resulting supernatants again collected (fraction "P").
1 ml of each supernatant was treated with 200 μl of ice cold 10% TCA to precipitate total protein including Aβ. The resulting pellet was washed once with 100% ethanol and resuspended in 100 μl of TBS (tris 20 mM, NaCl 150 mM, pH 7.4).
7.5 μl of sample (S or P) was boiled for 5 min. with an equal volume of tris-tricine sample buffer containing 4% SDS and loaded onto a Novex pre-cast 10-20% tris-tricine gel followed by Western transfer onto nitrocellulose. Signal for Aβ was detected using mAb WO2 (raised against residues 5-16 of Aβ) and visualized using ECL. The sensitivity of the detection system is 5-10 pg. […]

[6] = test system: zinc precipitated Aβ; assay: Resolubilization of zinc-aggregated Aβ in TBS; format: biochemical; conditions: 2.5 μM Aβ in TBS pH 7.4, 30 μM zinc (43% in solution), then 120 μM clioquinol; 95% soluble before zinc
Procedure: The ability of clioquinol to resolubilize zinc-aggregated Aβ was assessed. A 2.5 μM solution of Aβ in TBS at a pH of 7.4 was prepared. 95% of the Aβ was maintained in a soluble state.

[7] = assumed value; 1:1 mixtures of decane/clioquinol with PBS pH 7.4; cited from earlier work
[8] = injected preparations, dosages of 10-20 mg/kg; cited from earlier work
[9] = 1H NMR study of the interaction of vitamin B12 with clioquinol glucuronide; format: binding; conditions: 2.6 mM vitamin B12 + 10 mM clioquinol glucuronide, buffered water pH 6.5, 20° C.
Procedure: Three different solutions were prepared and their ^1 H NMR spectra were recorded in a DRX 400 MHz spectrophotometer at 20° C. Solution a) contained free vitamin B12 (hydroxycobalamin) in a concentration of 2.6 mM.
In FIGS. 1A-1C the spectra of the three solutions a, b and c are presented for the aromatic region (5.5-9.8 ppm). The differences are quite small but obvious in the expansion shown of FIGS. 2A-2C and FIGS. 3B-3C respectively.

SMILES	Relative signal strength of Aβ remaining on membrane [1] [%]	Radioactivity in brain ([2]; control 9.4 ± 0.9)	Radioactivity in liver ([2]; control 97 ± 8)	Radioactivity in kidney ([2]; control 895 ± 207)	Solubility in water / aqueous solutions [3]	Fraction of clioquinol dissolved in n-decane ([4]; 5.3 g suspended in 200 ml n-decane) [%]	Concentration of clioquinol in the PBS ([4]; PBS pH 7.4 extract of the n-decane supernatant, calculated from assumed 2% dissolution and partitioning coefficient) [nM]	Solubilization of Aβ from Alzheimer's disease brain homogenate [5]	Soluble Aβ after addition to zinc precipitated Aβ [6] [%]	Partitioning coefficient with PBS [7]	Concentration in the brain [8] [μl/ml]	Interaction with vitamin B12 (shift of 1H NMR resonances) [9]
O=C(O)CN(CCN(CC(=O)O)CC(=O)O)CC(=O)O [EDTA]	66											
Oc1c(I)cc(Cl)c2cccnc12 [clioquinol, 5-chloro-7-iodo-8 hydroxyquinoline]		8.4 ± 1.5 thousand cpm/g tissue (wet wei	85 ± 21 thousand cpm/g tissue (wet wei	252 ± 61 thousand cpm/g tissue (wet wei	cannot be dissolved in aqueous solutions	2	800	effective in promoting the solubilization of Aβ	70	1/1750	~20	
COC(=O)[C@H]1O[C@@H](Oc2c(I)cc(Cl)c3cccnc23)[C@H](OC(C)=O)[C@@H](OC(C)=O)[C@@H]1OC(C)=O [clioquinol glucuronide, methyl (5-chloro-7-iodo-quinolyl-2',3',4'tri-O-acetyl-glucopyranosid)uronate]					soluble in water							interaction
